In US20240246932A1 (Merck Sharp & Dohme LLC, priority 2021, published 2024):

Biological target: human NaV 1.8 channels stably expressed in HEK 293 cells (Homo sapiens (Human), UniProt Q9Y5Y9)
Test: Nav1.8 Qube automated patch-clamp assay
Format: cell-based
Conditions: human NaV1.8 in HEK 293 cells, whole-cell voltage clamp, room temperature; read-out: IC50 values (nM) for Examples in the Nav1.8 Qube Assay
Method: Compounds were tested on human NaV 1.8 and NaV1.5 channels stably expressed in human embryo kidney (HEK) 293 cells. Sodium current measurements on Qube® were conducted as follows: automated 384-well patch-clamp assays on the Qube® platform (Sophion Biosciences) were used to measure the inhibition of sodium flow through human NaV1.8 and NaV1.5 channels. Whole-cell voltage-clamp recordings were performed in QChips® (Sophion Biosciences) at room temperature. NaV1.8 current measurements on Qube® were obtained as follows: NaV1.8 currents were elicited with a 10 second 1 Hertz (Hz) pulse train from a holding potential of −90 millivolts (mV), delivered to the cells once per minute in the control condition (DMSO only) and after compound addition. The 1 hertz pulse train stimulation consisted of ten test pulses to 10 millivolt (mV) for 20 milliseconds (ms), each of which was followed by a 980 millisecond repolarization to −67 millivolts. At the end of the 10 second pulse train stimulation, a 5 second hyperpolarization step to −100 millivolt (mV) was used to recover NaV1.8 from fast inactivation. The peak currents elicited by the 1st and 10th test pulses were used to determine IC50 values for resting inhibition and inactivated state inhibition. NaV1.5 current measurements on Qube® were obtained as follows: NaV1.5 currents were elicited with a 20 second 3 Hertz pulse train in the control condition (DMSO only) and after compound addition. The pulse train consisted of sixty 20 millisecond test pulses to 0 millivolt from a holding potential of −80 millivolt (mV). The average peak currents elicited by the last 3 test pulses were used to determine IC50 values for NaV1.5 inhibition.
The following buffers were used for the Qube® recordings: External buffer for NaV1.8 Qube® recording: 150 NaCl, 2 CaCl2, 5 KCl, 1 MgCl2, 10 HEPES, 12 Dextrose; External buffer for Qube® NaV1.5 recording: 120 N-Methyl-D-Glucamine, 40 NaCl, 1 KCl, 2.7 CaCl2), 5 HEPES, 0.5 MgCl2; and Internal buffer for Qube® recording: 120 CsF, 30 CsCl, 10 EGTA, 5 HEPES, 5 NaF, 2 MgCl2.
For all Qube® experiments offline analysis was used to determine percent inhibition as a function of drug concentration. IC50 values were determined by fitting to the Hill equation.

Chain of human NaV 1.8 channels stably expressed in HEK 293 cells (Q9Y5Y9 whole entry): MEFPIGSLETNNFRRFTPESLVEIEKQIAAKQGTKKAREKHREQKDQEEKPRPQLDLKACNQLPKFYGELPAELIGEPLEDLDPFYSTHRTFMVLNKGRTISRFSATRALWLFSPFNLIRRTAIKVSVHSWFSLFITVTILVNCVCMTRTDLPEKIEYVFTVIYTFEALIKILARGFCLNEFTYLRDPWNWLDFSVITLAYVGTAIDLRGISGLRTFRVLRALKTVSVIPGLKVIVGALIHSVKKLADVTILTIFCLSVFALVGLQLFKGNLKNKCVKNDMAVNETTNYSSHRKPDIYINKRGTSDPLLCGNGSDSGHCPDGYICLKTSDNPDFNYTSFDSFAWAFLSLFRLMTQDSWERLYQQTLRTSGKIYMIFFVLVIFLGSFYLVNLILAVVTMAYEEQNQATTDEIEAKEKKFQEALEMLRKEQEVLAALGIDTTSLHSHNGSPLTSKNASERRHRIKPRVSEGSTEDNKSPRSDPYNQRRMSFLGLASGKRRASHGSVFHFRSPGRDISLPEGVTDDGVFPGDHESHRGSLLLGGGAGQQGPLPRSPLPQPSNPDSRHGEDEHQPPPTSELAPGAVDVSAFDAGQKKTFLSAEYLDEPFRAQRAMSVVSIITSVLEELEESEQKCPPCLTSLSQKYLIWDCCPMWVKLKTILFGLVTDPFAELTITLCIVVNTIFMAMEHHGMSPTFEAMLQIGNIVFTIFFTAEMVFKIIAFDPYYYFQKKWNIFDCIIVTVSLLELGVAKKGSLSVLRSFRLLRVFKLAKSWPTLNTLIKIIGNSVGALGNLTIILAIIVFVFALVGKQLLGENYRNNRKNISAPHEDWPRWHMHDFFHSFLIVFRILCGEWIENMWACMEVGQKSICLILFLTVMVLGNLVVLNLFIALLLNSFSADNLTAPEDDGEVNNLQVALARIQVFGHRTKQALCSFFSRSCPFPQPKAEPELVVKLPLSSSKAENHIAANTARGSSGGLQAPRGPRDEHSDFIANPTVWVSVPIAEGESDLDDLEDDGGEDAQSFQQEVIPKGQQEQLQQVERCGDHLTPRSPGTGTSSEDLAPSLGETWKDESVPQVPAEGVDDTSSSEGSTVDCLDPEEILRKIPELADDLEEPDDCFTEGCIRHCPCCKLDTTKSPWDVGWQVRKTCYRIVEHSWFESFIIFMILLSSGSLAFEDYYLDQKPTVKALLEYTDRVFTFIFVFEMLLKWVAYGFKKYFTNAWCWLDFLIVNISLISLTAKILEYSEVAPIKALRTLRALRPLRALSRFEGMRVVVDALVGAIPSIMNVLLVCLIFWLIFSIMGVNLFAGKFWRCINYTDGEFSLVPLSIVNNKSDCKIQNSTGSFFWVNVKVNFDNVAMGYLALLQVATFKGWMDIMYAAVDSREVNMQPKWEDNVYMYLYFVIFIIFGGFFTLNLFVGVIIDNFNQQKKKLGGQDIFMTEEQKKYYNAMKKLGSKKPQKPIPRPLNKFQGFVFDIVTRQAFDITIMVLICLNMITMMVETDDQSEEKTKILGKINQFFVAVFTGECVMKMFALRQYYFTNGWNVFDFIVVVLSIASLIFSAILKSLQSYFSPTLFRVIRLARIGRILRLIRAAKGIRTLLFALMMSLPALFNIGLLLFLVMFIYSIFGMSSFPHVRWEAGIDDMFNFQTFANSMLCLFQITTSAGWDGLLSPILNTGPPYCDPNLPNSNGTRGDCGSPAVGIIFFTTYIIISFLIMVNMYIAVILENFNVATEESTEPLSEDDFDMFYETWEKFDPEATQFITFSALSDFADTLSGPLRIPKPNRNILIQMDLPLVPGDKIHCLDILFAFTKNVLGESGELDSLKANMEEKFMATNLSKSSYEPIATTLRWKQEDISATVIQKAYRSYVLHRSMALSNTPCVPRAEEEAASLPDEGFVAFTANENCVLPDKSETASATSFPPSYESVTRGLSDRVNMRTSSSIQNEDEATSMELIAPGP

Row | Compound | IC50 [nM]
1 | O=C1NCCN(C(=O)NC(c2cnc(C(F)(F)F)c(F)c2)c2ccc(F)c(Cl)c2F)C1C1CC1 (single isomer, unassigned) [Example 37A, N-(R or S)-(3-chloro-2,4-difluorophenyl)(5-fluoro-6-(trifluoro-methyl)pyridin-3-yl)methyl)-(R or S)-2-cyclopropyl-3-oxopiperazine-1-carboxamide] | 1.85
2 | C[C@@H]1CN(C(=O)NC(c2ccc(F)c(Cl)c2)c2cccc(C(F)(F)F)n2)CC(=O)N1 (single isomer, unassigned) [Example 46B, (3R)-N-((S or R)-(3-chloro-4-fluoro-phenyl)(6-(trifluoro-methyl)pyridin-2-yl)methyl)-3-methyl-5-oxopiperazine-1-carboxamide] | 506
3 | C[C@@H]1C(=O)NCCN1C(=O)NC(c1ccc(Cl)cc1)c1ccnc(C(F)(F)F)n1 (single isomer, unassigned) [Example 68B] | 761
4 | O=C1CN(C(=O)NC(c2ccc(Cl)c(C(F)(F)F)n2)c2ccc(F)c(Cl)c2F)CCN1 (single isomer, unassigned) [Example 78B, N-((S or R)-(3-chloro-2,4-difluorophenyl)(5-chloro-6-(trifluoro-methyl)pyridin-2-yl)methyl)-3-oxopiperazine-1-carboxamide] | 3.54
5 | C[C@@H]1C(=O)NCCN1C(=O)NC(c1ccc(F)c(Cl)c1)c1cccc(OC(F)F)n1 (single isomer, unassigned) [Example 72B] | 25.3
6 | C[C@@H]1C(=O)NCCN1C(=O)NC(c1ccc(C#N)c(Cl)c1)c1cnc(C(F)(F)F)c(Cl)c1 (single isomer, unassigned) [Example 24A, (2R)-N-((R or S)-(3-chloro-4-cyano-phenyl)(5-chloro-6-(trifluoromethyl)pyridin-3-yl)methyl)-2-methyl-3-oxopiperazine-1-carboxamide] | 22.3
7 | C[C@@H]1C(=O)NCCN1C(=O)NC(c1cnc(C(F)(F)F)c(Cl)c1)c1ccc(Cl)c(C(F)(F)F)n1 (single isomer, unassigned) [Example 83B] | 3.14
8 | C[C@@H]1C(=O)NCCN1C(=O)NC(c1ccc(Cl)cc1)c1cccc(C(F)(F)F)n1 (single isomer, unassigned) [Example 9B, (2R)-N-((S or R)-(4-chlorophenyl)(6-(trifluoromethyl)pyridin-2-yl)methyl)-2-methyl-3-oxopiperazine-1-carboxamide] | 8.03
9 | C[C@@H]1C(=O)NCCN1C(=O)NC(c1cnc(C(F)(F)F)c(Cl)c1)c1csc(C(F)(F)F)n1 (single isomer, unassigned) [Example 84B, (2R)-N-((S or R)-(5-chloro-6-(trifluoromethyl)pyridin-3-yl)(2-(trifluoromethyl)thiazol-4-yl)methyl)-2-methyl-3-oxopiperazine-1-carboxamide] | 202
10 | O=C1CN(C(=O)NC(c2ccc(F)c(Cl)c2)c2cccc(C(F)(F)F)n2)CCN1 (single isomer, unassigned) [Example 42, N—((R or S)-(3-chloro-4-fluorophenyl)(6-(trifluoromethyl)pyridin-2-yl)methyl)-3-oxopiperazine-1-carboxamide] | 32.2
11 | C[C@@H]1C(=O)NCCN1C(=O)NC(c1cnc(C2CC2)c(Cl)c1)c1ccc(F)c(Cl)c1F (single isomer, unassigned) [Example 27B, (2R)-N-((S or R)-(3-chloro-2,4-difluorophenyl)(5-chloro-6-cyclopropylpyridin-3-yl)methyl)-2-methyl-3-oxopiperazine-1-carboxamide] | 2.88
12 | C[C@@H]1C(=O)NCCN1C(=O)NC(c1ccc(OC(F)(F)F)nc1)c1ccc(F)c(Cl)c1F (single isomer, unassigned) [Example 4B, (2R)-N-((S or R)-(3-chloro-2,4-difluorophenyl)(6-(trifluoromethoxy)pyridin-3-yl)methyl)-2-methyl-3-oxopiperazine-1-carboxamide] | 25.7
13 | C[C@@H]1C(=O)NCCN1C(=O)NC(c1ccc(F)c(Cl)c1)c1ccc2nc(C(F)(F)F)cn2c1 (single isomer, unassigned) [Example 11B] | 196
14 | C[C@@H]1C(=O)NCCN1C(=O)NC(c1cnc(C(F)(F)F)s1)c1ccc(F)c(Cl)c1F (single isomer, unassigned) [Example 62B] | 2.45
15 | O=C1CN(C(=O)NC(c2ccc(Cl)c(C(F)(F)F)n2)c2ccc(F)c(Cl)c2F)CCN1 (single isomer, unassigned) [Example 78A, N-((R or S)-(3-chloro-2,4-difluorophenyl)(5-chloro-6-(trifluoro-methyl)pyridin-2-yl)methyl)-3-oxopiperazine-1-carboxamide] | 15.3
16 | C[C@@H]1C(=O)NCCN1C(=O)NC(c1ccc(C#N)cc1)c1ccc(Cl)c(C(F)(F)F)n1 (single isomer, unassigned) [Example 76B] | 167
17 | C[C@@H]1C(=O)NCCN1C(=O)NC(c1ccc(OC(F)(F)F)c(Cl)c1)c1cnn(C(F)(F)F)c1 (single isomer, unassigned) [Example 63A, (2R)-N-((R or S)-(3-chloro-4-(trifluoro-methoxy)phenyl)(1-(trifluoromethyl)-1H-pyrazol-4-yl)methyl)-2-methyl-3-oxopiperazine-1-carboxamide] | 1.12
18 | C[C@@H]1C(=O)NCCN1C(=O)NC(c1ccc(OC(F)(F)F)c(Cl)c1)c1coc(C(F)(F)F)n1 (single isomer, unassigned) [Example 64A, (2R)-N-((R or S)-(3-chloro-4-(trifluoro-methoxy)phenyl)(2-(trifluoromethyl)oxazol-4-yl)methyl)-2-methyl-3-oxopiperazine-1-carboxamide] | 4.96
19 | C[C@@H]1C(=O)NCCN1C(=O)NC(c1ccc(C2CC2)nc1)c1ccc(F)c(Cl)c1F (single isomer, unassigned) [Example 33B, (2R)-N-((S or R)-(3-chloro-2,4-difluoro-phenyl)(6-cyclo-propylpyridin-3-yl)methyl)-2-methyl-3-oxopiperazine-1-carboxamide] | 514
20 | C[C@@H]1C(=O)NCCN1C(=O)NC(c1cnc(C(F)(F)F)nc1)c1ccc(Cl)c(Cl)c1 (single isomer, unassigned) [Example 28B, (2R)-N-((S or R)-(3,4-dichlorophenyl)(2-(trifluoromethyl)pyrimidin-5-yl)methyl)-2-methyl-3-oxopiperazine-1-carboxamide] | 43.7
21 | C[C@@H]1C(=O)NCCN1C(=O)NC(c1ccc(OC2CC2)c(F)c1)c1cnc(C(F)(F)F)c(Cl)c1 (single isomer, unassigned) [Example 25B, (2R)-N-((S or R)-(5-chloro-6-(trifluoro-methyl)pyridin-3-yl)(4-cyclopropoxy-3-fluorophenyl)methyl)-2-methyl-3-oxopiperazine-1-carboxamide] | 15.8
22 | C[C@@H]1C(=O)NCCN1C(=O)NC(c1ccnc(OCC(F)(F)F)c1)c1ccc(F)c(Cl)c1 (single isomer, unassigned) [Example 71A, (2R)-N-((R or S)-(3-chloro-4-fluorophenyl)(2-(2,2,2-trifluoro-ethoxy)pyridin-4-yl)methyl)-2-methyl-3-oxopiperazine-1-carboxamide] | 82.6
23 | C[C@@H]1C(=O)NCCN1C(=O)NC(c1ccc(OC(F)(F)F)c(Cl)c1)c1cnn(C(F)(F)F)c1 (single isomer, unassigned) [Example 63B, (2R)-N-((S or R)-(3-chloro-4-(trifluoro-methoxy)phenyl)(1-(trifluoromethyl)-1H-pyrazol-4-yl)methyl)-2-methyl-3-oxopiperazine-1-carboxamide] | 13.5
24 | C[C@@H]1C(=O)NCCN1C(=O)NC(c1ccc(C(F)(F)F)nc1)c1ccc(F)c(Cl)c1F (single isomer, unassigned) [Example 15A] | 4.74
25 | C[C@@H]1C(=O)NCCN1C(=O)NC(c1ccc(OC(F)(F)F)c(F)c1)c1ccc(C#N)c(C(F)(F)F)n1 (single isomer, unassigned) [Example 61B] | 3.83
26 | C[C@@H]1C(=O)NCCN1C(=O)NC(c1ccc(C(F)(F)F)nc1)c1ccc(Cl)c(C(F)(F)F)n1 (single isomer, unassigned) [Example 81A, (2R)-N-((R or S)-(5-chloro-6-(trifluoromethyl)pyridin-2-yl)(6-(trifluoro-methyl)pyridin-3-yl)methyl)-2-methyl-3-oxopiperazine-1-carboxamide] | 8
27 | C[C@@H]1C(=O)NCCN1C(=O)NC(c1ccc(Cl)cc1)c1ccc(OCC(F)(F)F)nc1 (single isomer, unassigned) [Example 5A, (2R)-N-((R or S)-(4-chlorophenyl)(6-(2,2,2-trifluoro-ethoxy)pyridin-3-yl)methyl)-2-methyl-3-oxopiperazine-1-carboxamide] | 17.6
